Patent US5455248A, “Substituted 6,11-ethano-6,11-dihydrobenzo[b] quinolizinium salts, and compositions and method of use thereof” (Sterling Winthrop Inc., priority 1993, dated 1995)

Key:
[1] = target: PCP recognition sites (PCP receptor), rat whole brain membranes; experiment: [^3 H]TCP Radioreceptor Assay (internal screen); type: binding, Male Sprague-Dawley rats; conditions: for Ki / [^3 H]TCP (internal screen) Percent (%) inhibition @10 μM: [^3 H]TCP approx. 1 nM, room temperature 25 min; for Ki: mean of at least two separate determinations
Method: [^3 H]TCP binding to PCP recognition sites was performed as described by Vignon et al. Brain Research 1983, 280, 194-197. Male Sprague-Dawley rats were sacrificed by decapitation, and whole brains were homogenized in 10 volumes (wt/vol) of cold Tris-HCl buffer (50 mM, pH 7.7) using a Brinkmann Polytron (setting 6, 30 sec). The homogenate was centrifuged at 40,000×g for 10 min at 4° C. The supernatant was decanted, and the homogenization and centrifugation steps were repeated twice as described above. Following this, the pellet was resuspended in Tris-HCl (5 mM, pH 7.7) at a tissue concentration of 0.5-0.75 g/ml, and one ml aliquots were frozen at -70° C. until use. The binding characteristics for PCP recognition sites were not altered by the freezing of membrane suspensions.
On the day of the assay, membrane aliquots were thawed, resuspended in fresh 5 mM Tris-HCl buffer at a tissue concentration of 1 mg/ml, and stored on ice until use. Each assay tube contained 100 μl of [^3 H]TCP at a final concentration of approximately 1 nM, 100 μl of various concentrations of the compounds of interest, 500 μl of the tissue suspension and 300 μl of buffer to a final assay volume of 1 ml and a final protein concentration of 0.5 mg/tube. Non-specific binding was defined by addition of […]. All tubes were incubated at room temperature for 25 min before termination of the reaction by rapid filtration over Whatman GF/B glass fiber filters that had been presoaked in a solution of 0.5% polyethylenimine for at least 1 hr prior to use. Filters were washed with three 4 ml volumes of cold Tris buffer. Following addition of scintillation cocktail, the amount of bound radioactivity was determined by liquid scintillation spectrometry using a Beckman LS 5000TA liquid scintillation counter with an efficiency for tritium of approximately 55%. Inhibition constants (Ki values) were calculated using the EBDA/LIGAND program (McPherson, J. Pharmacol. Meth. 1985, 14, 213-228), purchased from Elsevier/Biosoft, Inc. Results are reported as Ki values which are expressed as the mean of at least two separate determinations, or as a percent (%) inhibition of binding at 10 μM.

[2] = tested on: NMDA-induced neurotoxicity in cultured cortical neurons; experiment: Antagonism of NMDA-induced Neurotoxicity in Cultured Neurons; type: cell-based, Swiss-Webster mice; conditions: 500 μM NMDA for 30 minutes, LDH activity after 24 hours
Method: Pregnant, Swiss-Webster mice were obtained from Taconic Farms (Germantown, N.Y.) and sacrificed 16 days post conception. Fetuses were removed and placed in a sterile dish containing Hank's balanced salt solution (HBSS), pH 7.4. Brain cortices were dissected, meninges were removed, the tissue was minced and placed into a solution of HBSS containing 0.25% (w/v) trypsin at 37° C. for 15 minutes. Tissue was then triturated with a sterile pasteur pipet, diluted with minimal essential media (Gibco 330-1430), pH 7.4, supplemented with 10% horse serum, 10% fetal calf serum, 2 mM 1-glutamine, 21 mM d-glucose, 2.2 g/L sodium bicarbonate, 1000 U/ml penicillin, and 1,000 μg/ml streptomycin. Cells were plated onto Falcon primaria 96 well plates at a final density of 50,000 cells/well and incubated at 37° C. in the presence of 5% (v/v) carbon dioxide. After 5 days, plating media was replaced with maintenance media containing minimal essential media (Gibco 330-1430), pH 7.4, supplemented with 10% horse serum, […], 21 mM d-glucose, 2.2 g/1 sodium bicarbonate,1,000 U/ml penicillin, 1,000 μg/ml streptomycin, and 10 μM cytosine arabinoside. On days 7 and 10, media was replaced with maintenance media as above lacking the cytosine arabinoside. Experiments were conducted on day 13.
Day 13 cultured cortical neurons were washed twice with minimal essential media, pH 7.4 and then exposed for 30 minutes to 500 μM N-methyl-D-aspartic acid (NMDA) with or without varying concentrations of test agents. Dizocilpine (MK-801) at a final concentration of 10 μM MK-801 was routinely included as a positive control. MK-801 and test agents were prepared in minimal essential media supplemented with 21 mM d-glucose and 2.2 g/L sodium bicarbonate (MEM). After 30 minutes, media was replaced with MEM alone. Exposure of neurons to test agents was limited to the NMDA treatment period. Twenty-four hours after removal of NMDA, an aliquot of media from each well was removed for assessment of cell injury by determining lactate dehydrogenase (LDH) activity by the method of Wroblewski and LaDue Proc. Soc. […]

[3] = tested on: PCP recognition sites (PCP receptor), whole rat forebrain membranes; experiment: [^3 H]TCP Radioreceptor Assay (external screen); type: binding; conditions: 25° C. for 60 minutes
Method: Representative compounds of the invention were also tested in an external [^3 H]TCP radioreceptor assay using the following protocol:
A procedure similar to that described above for the [^3 H]TCP radioreceptor assay (internal screen) was utilized except that the whole rat forebrain membranes were incubated at 25° C. for 60 minutes rather than at room temperature for 25 minutes, before termination of the reaction. The results are reported as a percent (%) inhibition of binding at 10 μM.

| Compound | Ki [1] [nM] | further results |
| --- | --- | --- |
| 12-isopropylidene-13,13-dimethyl-6,11-ethano-6,11-dihydrobenzo[b]quinolizinium perchlorate (Formula I: R^1 =H; R^2 =R^3 =CH3 ; R^4 and R^5 together =isopropylidene; X^- =ClO4^-) and 12,12-dimethyl-13-isopropylidene-6,11-ethano-6,11-dihydrobenzo[b]quinolizinium perchlorate [Example 16] | 265 | – |
| C=C(C)C1(C)CC2c3ccccc3C1c1cccc[n+]12 (single isomer, unassigned) [Example 2, 6,11-ethano-12-isopropenyl-12-methyl-6,11-dihydrobenzo[b]quinolizinium bromide] | 208 | IC50 ([2]; Mus musculus, Cortical neurone): 7300 nM |
| C=C(C)C1(COC)CC2c3ccccc3C1c1cccc[n+]12.[O-][Cl+3]([O-])([O-])[O-] (single isomer, unassigned) [Example 4, 6,11-ethano-12-isopropenyl-12-methoxymethyl-6,11-dihydrobenzo[b]quinolizinium perchlorate] | 313 | – |
| CC(C)(C)C1C2c3ccccc3C(C1C(C)(C)C)[n+]1ccccc12.F[P-](F)(F)(F)(F)F (single isomer, unassigned) [Example 6, 6,11-ethano-12-tert-butyl13-tert-butyl-6,11-dihydrobenzo[b]quinolizinium hexafluorophosphate] | – | [^3 H]TCP (internal screen) Percent (%) inhibition @10 μM [1]: 44% |
| CC(C)(C)C1C2c3ccccc3C(C1C(C)(C)C)[n+]1ccccc12 (single isomer, unassigned) [Example 7, 6,11-ethano-12-tert-butyl-13-tert-butyl-6,11-dihydrobenzo[b]quinolizinium hexafluorophosphate] | 5090 | – |
| C=CC1CC2c3ccccc3C1c1cccc[n+]12 (single isomer, unassigned) [Example 13(a), 6,11-ethano-12-ethylene-6,11-dihydrobenzo[b]quinolizinium bromide] | – | [^3 H]TCP (internal screen) Percent (%) inhibition @10 μM [1]: 49% |
| c1ccc2c(c1)C1CC3(CCC3)C2c2cccc[n+]21 (stereo not shown) [10(b), 6,11-ethano-12,12-(1'-spirocyclobutane)-6,11-dihydrobenzo[b]-quinoliziniumchloride] | 3110 | – |
| OCC1(CO)CC2c3ccccc3C1c1cccc[n+]12 (stereo not shown) [11(b), 6,11-ethano-12,12-dihydroxymethyl-6,11-dihydrobenzo[b]quinolizinium chloride] | 1950 | – |
| c1ccc2c(c1)C1CC3(C4CC5CC(C4)CC3C5)C2c2cccc[n+]21 (stereo not shown) [15(b), 6,11-ethano-12,12-(2'-spiro-adamantane)-6,11-dihydrobenzo[b]quinolizinium chloride] | 5280 | – |
| CCOCC1(COCC)CC2c3ccccc3C1c1cccc[n+]12 (stereo not shown) [17(b), 12,12-diethoxymethyl-6,11-ethano-6,11-dihydrobenzo[b]quinolizinium chloride] | 353 | – |
| C#CC1(C#C)CC2c3ccccc3C1c1cccc[n+]12 (stereo not shown) [18(b), 12,12-diethynyl-6,11-ethano-6,11-dihydrobenzo[b]quinolizinium hexafluorophosphate] | 883 | – |
| CC1(C)C2c3ccccc3C([n+]3ccccc32)C1(C)C.[O-][Cl+3]([O-])([O-])[O-] (stereo not shown) [Example 1, 6,11-ethano-12, 12, 13,13-tetramethyl-6,11-dihydrobenzo[b]quinolizinium perchlorate] | 21.2 | – |
| C=C(C)C1(C)CC2c3ccccc3C1c1cccc[n+]12 (stereo not shown) [Example 3, 6,11-ethano-12-isopropenyl-12-methyl-6,11-dihydrobenzo[b]quinolizinium bromide] | 191 | IC50 [2]: 5880 nM |
| C=C(C)C1(C)CC2c3ccccc3C1c1cccc[n+]12 (stereo not shown) [Example 5, 6,11-ethano-12-isopropenyl-12-methyl-6,11dihydrobenzo[b]quinolizinium chloride] | 65.2 | IC50 [2]: 2810 nM |
| [O-][Cl+3]([O-])([O-])[O-].c1ccc2c(c1)C1CC(C3CC3)(C3CC3)C2c2cccc[n+]21 (stereo not shown) [Example 8, 6,11-ethano-12,12-dicyclopropyl-6,11-dihydrobenzo[b]-quinolizinium perchlorate] | 88.1 | – |
| c1ccc2c(c1)C1CC(C3CC3)(C3CC3)C2c2cccc[n+]21 (stereo not shown) [Example 9, 6.11-ethano-12,12-dicyclopropyl-6,11-dihydrobenzo[b]quinolizinium chloride] | 103 | – |
| C=C(C)C1(C)CC2(C)c3ccccc3C1c1cccc[n+]12.[O-][Cl+3]([O-])([O-])[O-] (stereo not shown) [Example 12, 6,11-ethano-6-methyl-12-isopropenyl-12-methyl-6,11-dihydrobenzo[b]quinolizinium perchlorate] | 69 | – |
| CC(C)=CC1C2c3ccccc3C([n+]3ccccc32)C1(C)C (stereo not shown) [Example 14, 6,11-ethano-12-(2,2-dimethyl)ethylene-13,13-dimethyl-6,11-dihydrobenzo[b]quinolizinium hexafluorophosphate] | 3540 | – |
| CC(C)C1(C(C)C)CC2c3ccccc3C1c1cccc[n+]12 (stereo not shown) [Example 19, 12,12-diisopropyl-6,11-dihydrobenzo[b]quinolizium hexafluorophosphate] | 6010 | – |
| C=C(C)C1(C)CC2c3ccccc3C1c1cccc[n+]12.[O-][Cl+3]([O-])([O-])[O-] (stereo not shown) [Example 20, 6,11-ethano-12-isopropenyl-12-methyl-6,11-dihydrobenzo[b]quinolizinium perchlorate] | 45.7 | [^3 H]TCP (external screen) Percent inhibition (%) @10 μM [3]: 94%; binding to the PCP receptor (in words) [1]: found to bind to the PCP receptor |
